According to the NIST ThermoML archive (doi:10.1021/je800110r):
Numbers after ± are expanded uncertainties.

Conditions: 293.15 K, Liquid, Vibrating tube method

CCCCCCCCCC [decane]
Conditions	mass density [kg/m3]
22074 kPa	745.5 ± 2
22091 kPa	745.6 ± 2
22110 kPa	745.5 ± 2
22128 kPa	745.6 ± 2
22143 kPa	745.7 ± 2
22164 kPa	745.5 ± 2
22179 kPa	745.6 ± 2
22199 kPa	745.6 ± 2
22217 kPa	745.7 ± 2
22235 kPa	745.7 ± 2
22253 kPa	745.5 ± 2
22275 kPa	745.8 ± 2
22300 kPa	745.7 ± 2
22318 kPa	745.7 ± 2
22336 kPa	745.7 ± 2
22358 kPa	745.8 ± 2
22373 kPa	745.8 ± 2
22397 kPa	745.8 ± 2
22412 kPa	745.8 ± 2
22434 kPa	745.7 ± 2
22452 kPa	745.7 ± 2
22473 kPa	745.8 ± 2
22498 kPa	745.9 ± 2
22523 kPa	745.9 ± 2
22542 kPa	745.8 ± 2
22564 kPa	746 ± 2
22583 kPa	745.9 ± 2
22605 kPa	745.9 ± 2
22624 kPa	745.9 ± 2
22648 kPa	745.8 ± 2
22667 kPa	745.9 ± 2
22689 kPa	746 ± 2
22711 kPa	745.9 ± 2
22727 kPa	746 ± 2
22746 kPa	746 ± 2
22771 kPa	746 ± 2
22787 kPa	746 ± 2
22807 kPa	746 ± 2
22830 kPa	746.1 ± 2
22852 kPa	746.1 ± 2
22866 kPa	746 ± 2
22882 kPa	746.2 ± 2
22899 kPa	746.2 ± 2
22915 kPa	746.2 ± 2
22934 kPa	746.2 ± 2
22948 kPa	746.2 ± 2
22970 kPa	746.2 ± 2
22994 kPa	746.1 ± 2
23011 kPa	746.2 ± 2
23030 kPa	746.2 ± 2
23047 kPa	746.1 ± 2
23069 kPa	746.1 ± 2
23086 kPa	746.1 ± 2
23108 kPa	746.2 ± 2
23127 kPa	746.3 ± 2
23144 kPa	746.2 ± 2
23167 kPa	746.2 ± 2
23186 kPa	746.2 ± 2
23206 kPa	746.4 ± 2
23223 kPa	746.3 ± 2
23246 kPa	746.3 ± 2
23265 kPa	746.4 ± 2
23285 kPa	746.4 ± 2
23308 kPa	746.2 ± 2
23328 kPa	746.4 ± 2
23345 kPa	746.3 ± 2
23362 kPa	746.3 ± 2
23382 kPa	746.3 ± 2
23402 kPa	746.3 ± 2
23416 kPa	746.3 ± 2
23434 kPa	746.3 ± 2
23454 kPa	746.4 ± 2
23472 kPa	746.4 ± 2
23489 kPa	746.5 ± 2
23509 kPa	746.5 ± 2
23529 kPa	746.5 ± 2
23547 kPa	746.5 ± 2
23565 kPa	746.5 ± 2
23582 kPa	746.5 ± 2
23605 kPa	746.6 ± 2
23632 kPa	746.7 ± 2
23647 kPa	746.6 ± 2
23668 kPa	746.5 ± 2
23687 kPa	746.7 ± 2
23704 kPa	746.6 ± 2
23728 kPa	746.7 ± 2
23755 kPa	746.6 ± 2
23773 kPa	746.6 ± 2
23790 kPa	746.7 ± 2
23811 kPa	746.7 ± 2
23826 kPa	746.6 ± 2
23847 kPa	746.7 ± 2
23875 kPa	746.7 ± 2
23896 kPa	746.8 ± 2
23917 kPa	746.8 ± 2
23940 kPa	746.7 ± 2
23964 kPa	746.9 ± 2
23985 kPa	746.9 ± 2
24004 kPa	746.7 ± 2
24022 kPa	747 ± 2
24046 kPa	746.8 ± 2
24065 kPa	746.8 ± 2
24089 kPa	746.8 ± 2
24108 kPa	746.9 ± 2
24126 kPa	746.9 ± 2
24148 kPa	746.9 ± 2
24170 kPa	746.9 ± 2
24194 kPa	746.9 ± 2
24219 kPa	747 ± 2
24237 kPa	747 ± 2
24256 kPa	746.9 ± 2
24284 kPa	747 ± 2
24309 kPa	747 ± 2
24334 kPa	747 ± 2
24356 kPa	747.1 ± 2
24374 kPa	747 ± 2
24393 kPa	747 ± 2
24416 kPa	747 ± 2
24435 kPa	747.1 ± 2
24454 kPa	747.1 ± 2
24479 kPa	747.1 ± 2
24498 kPa	747.1 ± 2
24526 kPa	747.1 ± 2
24545 kPa	747.1 ± 2
24574 kPa	747.2 ± 2
24590 kPa	747.2 ± 2
24613 kPa	747.1 ± 2
24632 kPa	747.2 ± 2
24655 kPa	747.3 ± 2
24678 kPa	747.2 ± 2
24700 kPa	747.2 ± 2
24720 kPa	747.2 ± 2
24739 kPa	747.2 ± 2
24759 kPa	747.4 ± 2
24779 kPa	747.4 ± 2
24808 kPa	747.3 ± 2
24834 kPa	747.2 ± 2
24857 kPa	747.4 ± 2
24883 kPa	747.4 ± 2
24899 kPa	747.3 ± 2
24926 kPa	747.4 ± 2
24943 kPa	747.5 ± 2
24972 kPa	747.3 ± 2
24999 kPa	747.4 ± 2
25019 kPa	747.5 ± 2
25048 kPa	747.5 ± 2
25068 kPa	747.5 ± 2
25092 kPa	747.5 ± 2
25116 kPa	747.5 ± 2
25139 kPa	747.5 ± 2
25163 kPa	747.5 ± 2
25187 kPa	747.6 ± 2
25218 kPa	747.7 ± 2
25238 kPa	747.6 ± 2
25269 kPa	747.5 ± 2
25300 kPa	747.7 ± 2
25320 kPa	747.7 ± 2
25345 kPa	747.6 ± 2
25370 kPa	747.6 ± 2
25391 kPa	747.7 ± 2
25419 kPa	747.6 ± 2
25442 kPa	747.7 ± 2.1
25468 kPa	747.8 ± 2.1
25493 kPa	747.7 ± 2.1
25512 kPa	747.6 ± 2.1
25535 kPa	747.8 ± 2.1
25557 kPa	747.8 ± 2.1
25577 kPa	747.8 ± 2.1
25599 kPa	747.7 ± 2.1
25615 kPa	747.7 ± 2.1
25638 kPa	747.9 ± 2.1
25657 kPa	747.8 ± 2.1
25680 kPa	747.8 ± 2.1
25699 kPa	747.8 ± 2.1
25720 kPa	748 ± 2.1
25746 kPa	747.9 ± 2.1
25766 kPa	747.9 ± 2.1
25788 kPa	747.9 ± 2.1
25808 kPa	747.9 ± 2.1
25835 kPa	748 ± 2.1
25861 kPa	748 ± 2.1
25887 kPa	748 ± 2.1
25907 kPa	748.1 ± 2.1
25933 kPa	747.9 ± 2.1
25959 kPa	748 ± 2.1
25986 kPa	748 ± 2.1
26006 kPa	748.1 ± 2.1
26023 kPa	748 ± 2.1
26040 kPa	748.1 ± 2.1
26070 kPa	748.1 ± 2.1
26093 kPa	748.1 ± 2.1
26117 kPa	748.1 ± 2.1
26145 kPa	748.1 ± 2.1
26165 kPa	748.2 ± 2.1
26192 kPa	748.1 ± 2.1
26216 kPa	748.1 ± 2.1
26243 kPa	748.1 ± 2.1
26263 kPa	748.4 ± 2.1
26291 kPa	748.2 ± 2.1
26315 kPa	748.2 ± 2.1
26335 kPa	748.3 ± 2.1
26352 kPa	748.3 ± 2.1
26370 kPa	748.3 ± 2.1
26390 kPa	748.4 ± 2.1
26408 kPa	748.3 ± 2.1
26432 kPa	748.3 ± 2.1
26453 kPa	748.3 ± 2.1
26483 kPa	748.4 ± 2.1
26516 kPa	748.4 ± 2.1
26537 kPa	748.4 ± 2.1
26568 kPa	748.4 ± 2.1
26586 kPa	748.5 ± 2.1
26607 kPa	748.4 ± 2.1
26631 kPa	748.5 ± 2.1
26652 kPa	748.5 ± 2.1
26677 kPa	748.4 ± 2.1
26694 kPa	748.5 ± 2.1
26719 kPa	748.4 ± 2.1
26741 kPa	748.5 ± 2.1
26769 kPa	748.5 ± 2.1
26795 kPa	748.5 ± 2.1
26816 kPa	748.5 ± 2.1
26841 kPa	748.6 ± 2.1
26863 kPa	748.5 ± 2.1
26885 kPa	748.6 ± 2.1
26913 kPa	748.7 ± 2.1
26935 kPa	748.7 ± 2.1
26964 kPa	748.7 ± 2.1
26989 kPa	748.6 ± 2.1
27011 kPa	748.7 ± 2.1
27036 kPa	748.7 ± 2.1
27054 kPa	748.6 ± 2.1
27077 kPa	748.7 ± 2.1
27103 kPa	748.7 ± 2.1
27128 kPa	748.8 ± 2.1
27154 kPa	748.7 ± 2.1
27173 kPa	748.7 ± 2.1
27202 kPa	748.8 ± 2.1
27232 kPa	748.8 ± 2.1
27257 kPa	748.8 ± 2.1
27280 kPa	748.8 ± 2.1
27309 kPa	748.8 ± 2.1
27328 kPa	748.8 ± 2.1
27362 kPa	749 ± 2.1
27385 kPa	748.9 ± 2.1
27419 kPa	748.9 ± 2.1
27438 kPa	749 ± 2.1
27475 kPa	749 ± 2.1
27501 kPa	749 ± 2.1
27523 kPa	749 ± 2.1
27557 kPa	749.1 ± 2.1
27579 kPa	749.1 ± 2.1
27609 kPa	749.1 ± 2.1
27632 kPa	749.1 ± 2.1
27667 kPa	749.1 ± 2.1
27690 kPa	749.2 ± 2.1
27713 kPa	749.1 ± 2.1
27748 kPa	749.3 ± 2.1
27770 kPa	749.1 ± 2.1
27805 kPa	749.2 ± 2.1
27827 kPa	749.1 ± 2.1
27850 kPa	749.2 ± 2.1
27877 kPa	749.2 ± 2.1
27896 kPa	749.1 ± 2.1
27924 kPa	749.3 ± 2.1
27959 kPa	749.2 ± 2.1
27983 kPa	749.3 ± 2.1
28006 kPa	749.4 ± 2.1
28033 kPa	749.3 ± 2.1
28056 kPa	749.4 ± 2.1
28076 kPa	749.4 ± 2.1
28099 kPa	749.3 ± 2.1
28123 kPa	749.3 ± 2.1
